The source of these data is US20260355330A1, “CELL PENETRATING PEPTIDES AND USES THEREOF” (VECTIOPEP OÜ, priority 2022, published 2026).

Positions of bridges follow the written chain, without caps; N, C: chain ends. Non-standard residues stand in square brackets, D forms with d. Residues, ends and D or L forms follow the SMILES beside them. Chains are numbered I, II in the order given. *: point of attachment. Docosanoyl = CCCCCCCCCCCCCCCCCCCCCC(=O)*; Arachidoyl = CCCCCCCCCCCCCCCCCCCC(=O)*; Palmitoyl = CCCCCCCCCCCCCCCC(=O)*; Dab = NCC[C@H](N)C(=O)O

The subject of test [1] is CHO-K1 cells. Description: Delivery of reporter mRNA with CPPs in cell culture (luciferase luminescence 24 h post-transfection). In kind it is cell-based. Particulars: for Average RLU/mg (reporter levels post-transfection of mRNA): firefly luciferase mRNA, 0.1 μg per well, charge ratio 3:1, serum containing media, 24 h, RLU normalised to total protein in lysate; for Efficiency of mRNA transfection/delivery / Delivery of mRNA compared to NF54 / Delivery of mRNA compared to NF55: in words; for Efficiency of mRNA transfection/delivery: FIG. 1 / Table 2, cell culture; for Delivery of mRNA compared to NF54: comparator NF54; for Delivery of mRNA compared to NF55: comparator NF55. How it is done: FIG. 1: Delivery of reporter mRNA with CPPs in cell culture—evaluation of reporter levels post-transfection (relative light units normalised to total protein in the cell lysate (RLU/mg)). Naked mRNA treated cells were used as controls and Lipofectamine3000 (LF3000) was used to compare the transfection efficacy with a liposome-based transfection reagent.
Adherent CHO-K1 cells were grown in Dulbecco's Modified Eagle's Medium (DMEM), which were supplemented with 0.1 mM non-essential amino acids, 1.0 mM sodium pyruvate, 100 U/ml penicillin, and […]. For complete media, 10% (final) fetal bovine serum (FBS) was added. Cells were maintained in a humidified incubator at 37 °C, 5% CO2. Cell viability and confluence was assessed daily and the cell density was reduced regularly. For cell counting, we used the CytoSMART cell counter accompanied by 0.4% trypan blue staining prior measurement. The multi-well plates with cell cultures used for experiments were incubated in a humidified incubator at 37 °C, 5% CO2.
For in vitro experiments 0.1 μg of nucleic acid (plasmid DNA (pDNA) or mRNA) was used per 96-well plate well. For CPP/NA complex formation, the diluted NA was mixed with CPP in water. Complexes were formed based on the theoretical charge ratio (CR) of positive charges from the peptide in excess to the negative charges from nucleic acid backbone, at charge ratio 3:1 with peptide in excess. Commercial reagent Lipofectamine3000 (LF3000) was used according to the manufacturer's recommendations for the transfection of adherent cells.
For reporter luminescence (expressed from firefly luciferase encoding mRNA or plasmid pDNA) assessment in adherent cell culture, 10,000 cells per 96-well plate well were seeded in 100 μl of media one day prior to transfection. Shortly before transfection, cell media was replaced with 100 μl of serum containing (10% foetal bovine serum) DMEM media. CPPs and mRNA or pDNA were mixed at a charge ratio 3:1 in ultrapure water and incubated at room temperature before addition to cells in serum containing media. Cells were transfected with 0.1 μg of mLuc per well.
24 hours post-transfection, the media was aspirated, cells were washed with 1×PBS, and 30 μl of lysis buffer (0.1% Triton X100 in 1×PBS) was added. Cells were incubated with lysis buffer for 20 min. to lyse the cells. From the lysate, 20 μl was transferred to a black frame white well 96-well plate for luminescence measurement after addition of substrate luciferin (PerkinElmer) in buffer. The luminescence signal was detected with GloMax® 96 microplate luminometer equipped with GloMax® 1.9.2 software (Promega). RLU values were converted to RLU/mg by normalization to total protein in cell lysate, reflecting total number of cells. For protein detection, a Pierce™ BCA Protein Assay Kit was used.
The present inventors have previously reported CPPs developed from the NickFect (NF) and PepFect (PF) families for plasmid (pDNA), siRNA and miRNA delivery (see, e.g. WO 2020/144317, WO 2010/039088 and WO 2012/113846). With the emergence of mRNA-based therapeutics, it was decided to investigate peptides for their ability to deliver mRNA. It was assumed that CPPs that are efficient for siRNA and miRNA delivery, e.g. histidine containing CPPs (Porosk et. al. (2019)), may be good candidates for the delivery of mRNA. Therefore, CPPs from each main family (NF55-, PF14- and NF70-derived CPPs) were tested for mRNA delivery/transfection. Naked mRNA treated and untreated cells were used as control groups. LF3000 was used to compare the transfection efficacy of liposome-based transfection reagents with the CPPs (FIG. 1).

For test [2], the system named is spleen of BALB/c mice. Description: In vivo delivery of mRNA with CPPs - reporter levels in the spleen. As to conditions: for Efficacy of mRNA delivery into the spleen in vivo: FIG. 5 / Table 5; for Reporter levels in the spleen (RLU): mRNA, tail vein injection, spleens harvested 16 hours after single injection, whole tissue homogenate. The procedure: FIG. 5: Delivery of mRNA with CPPs in vivo—reporter levels in the spleen. Spleens were harvested post mortem 16 hours post-injection. The reporter levels (RLU) were evaluated from the whole tissue homogenate.
The transfection complexes (CPP/mRNA) were formed using 10 μg of mRNA mixed with each peptide at indicated charge ratios (CRs) in MQ water in a final volume of 100 μl. CRs were calculated theoretically and account for both the positive charges of the peptide and negative charges of the nucleic acid. The transfection complexes (CPP/mRNA and CPP/pDNA) were formed using 50 μg of mRNA mixed with each peptide at indicated charge ratios (CRs) in MQ water in a final volume of 168 μl. The complexes were incubated for 30 minutes at room temperature and then mixed with equal volume of 10% glucose (resulting in a final solution of 5% glucose in a total volume of 200 μl for 10 μg dose groups and 336 μl for 50 μg dose groups) and immediately injected intravenously via the tail vein.
The reporter gene (luciferase) expression levels were evaluated from the tissue homogenate post mortem 16-24 h after single injection.
CPPs and mRNA complexes were injected through the tail vein of BALB/c mice, spleens were harvested 16 hours after the single injection and reporter signal was measured from the whole tissue homogenate (FIG. 5 and Table 5).

For the molecule `CCCCCCCCCCCCCCCCCCCCCC(=O)N[C@@H](C)C(=O)NCC(=O)N[C@@H](Cc1ccc(O)cc1)C(=O)N[C@@H](CC(C)C)C(=O)N[C@@H](CC(C)C)C(=O)NCC(=O)NCCC[C@H](N)C(=O)N[C@H](C(=O)N[C@@H](CC(N)=O)C(=O)N[C@@H](CC(C)C)C(=O)N[C@@H](CCCCN)C(=O)N[C@@H](C)C(=O)N[C@@H](CC(C)C)C(=O)N[C@@H](C)C(=O)N[C@@H](C)C(=O)N[C@@H](CC(C)C)C(=O)N[C@@H](C)C(=O)N[C@@H](CCCCN)C(=O)N[C@@H](C)C(=O)N[C@H](C(=O)N[C@@H](CC(C)C)C(N)=O)[C@@H](C)CC)[C@@H](C)CC` [NF411], in test [1], the “Average RLU/mg (reporter levels post-transfection of mRNA)” value (shortened to “Average RLU/mg”) was 2 090 000 000 RLU/mg, the “Efficiency of mRNA transfection/delivery” value was “the most efficient”, the “Delivery of mRNA compared to NF54” value is “equivalent delivery of mRNA to NF54” and the “Delivery of mRNA compared to NF55” value was “good improvement in delivery of mRNA over NF55”. Further, the “Efficacy of mRNA delivery into the spleen in vivo” value (“Efficacy” below) in test [2] (in words) was “delivered mRNA into the spleen in vivo with high efficacy”. Moreover, the “Reporter levels in the spleen (RLU)” value in test [2] is on record as 161 716 RLU.
With `CCCCCCCCCCCCCCCCCCCC(=O)N[C@@H](C)C(=O)NCC(=O)N[C@@H](Cc1ccc(O)cc1)C(=O)N[C@@H](CC(C)C)C(=O)N[C@@H](CC(C)C)C(=O)NCC(=O)NCCCC[C@H](N)C(=O)N[C@H](C(=O)N[C@@H](CC(N)=O)C(=O)N[C@@H](CC(C)C)C(=O)N[C@@H](CCCCN)C(=O)N[C@@H](C)C(=O)N[C@@H](CC(C)C)C(=O)N[C@@H](C)C(=O)N[C@@H](C)C(=O)N[C@@H](CC(C)C)C(=O)N[C@@H](C)C(=O)N[C@@H](CCCCN)C(=O)N[C@@H](C)C(=O)N[C@H](C(=O)N[C@@H](CC(C)C)C(N)=O)[C@@H](C)CC)[C@@H](C)CC` [NF412] (I: H-KINLKALAALAKAIL-NH2 / II: Arachidoyl-AGYLLG; amide I:1-II:C), the “Average RLU/mg” value in test [1] is 393 000 000 RLU/mg. In test [2], the “Reporter levels in the spleen (RLU)” value is on record as 36 759 RLU.
As to `CCCCCCCCCCCCCCCCCCCCCC(=O)N[C@@H](C)C(=O)NCC(=O)N[C@@H](Cc1ccc(O)cc1)C(=O)N[C@@H](CC(C)C)C(=O)N[C@@H](CC(C)C)C(=O)NCC(=O)NCCCC[C@H](N)C(=O)N[C@H](C(=O)N[C@@H](CC(N)=O)C(=O)N[C@@H](CC(C)C)C(=O)N[C@@H](CCCCN)C(=O)N[C@@H](C)C(=O)N[C@@H](CC(C)C)C(=O)N[C@@H](C)C(=O)N[C@@H](C)C(=O)N[C@@H](CC(C)C)C(=O)N[C@@H](C)C(=O)N[C@@H](CCCCN)C(=O)N[C@@H](C)C(=O)N[C@H](C(=O)N[C@@H](CC(C)C)C(N)=O)[C@@H](C)CC)[C@@H](C)CC` [NF413] (I: H-KINLKALAALAKAIL-NH2 / II: Docosanoyl-AGYLLG; amide I:1-II:C), in test [1], the “Average RLU/mg” value is recorded as 678 000 000 RLU/mg. In test [2], the “Reporter levels in the spleen (RLU)” value was 50 495 RLU.
Consider `CCCCCCCCCCCCCCCC(=O)N[C@@H](C)C(=O)NCC(=O)N[C@@H](Cc1ccc(O)cc1)C(=O)N[C@@H](CC(C)C)C(=O)N[C@@H](CC(C)C)C(=O)NCC(=O)NCCC[C@H](N)C(=O)N[C@H](C(=O)N[C@@H](CC(N)=O)C(=O)N[C@@H](CC(C)C)C(=O)N[C@@H](CCCCN)C(=O)N[C@@H](C)C(=O)N[C@@H](CC(C)C)C(=O)N[C@@H](C)C(=O)N[C@@H](C)C(=O)N[C@@H](CC(C)C)C(=O)N[C@@H](C)C(=O)N[C@@H](CCCCN)C(=O)N[C@@H](C)C(=O)N[C@H](C(=O)N[C@@H](CC(C)C)C(N)=O)[C@@H](C)CC)[C@@H](C)CC` [NF419], for which, in test [1], the “Average RLU/mg” value is 491 000 000 RLU/mg. Also, the “Efficacy” value in test [2] (in words) is on record as “delivered mRNA into the spleen in vivo with high efficacy”. In addition, the “Reporter levels in the spleen (RLU)” value in test [2] is 179 114 RLU.
For the molecule `CCCCCCCCCCCCCCCC(=O)N[C@@H](C)C(=O)NCC(=O)N[C@@H](Cc1ccc(O)cc1)C(=O)N[C@@H](CC(C)C)C(=O)N[C@@H](CC(C)C)C(=O)NCC(=O)NCCCC[C@H](N)C(=O)N[C@H](C(=O)N[C@@H](CC(N)=O)C(=O)N[C@@H](CC(C)C)C(=O)N[C@@H](CCCCN)C(=O)N[C@@H](C)C(=O)N[C@@H](CC(C)C)C(=O)N[C@@H](C)C(=O)N[C@@H](C)C(=O)N[C@@H](CC(C)C)C(=O)N[C@@H](C)C(=O)N[C@@H](CCCCN)C(=O)N[C@@H](C)C(=O)N[C@H](C(=O)N[C@@H](CC(C)C)C(N)=O)[C@@H](C)CC)[C@@H](C)CC` [NF420] (I: H-KINLKALAALAKAIL-NH2 / II: Palmitoyl-AGYLLG; amide I:1-II:C), in test [1], the “Average RLU/mg” value is on record as 548 000 000 RLU/mg. Further, the “Reporter levels in the spleen (RLU)” value in test [2] is 81 271 RLU.
As to `CCCCCCCCCCCCCCCC(=O)N[C@@H](C)C(=O)NCC(=O)N[C@@H](Cc1ccc(O)cc1)C(=O)N[C@@H](CC(C)C)C(=O)N[C@@H](CC(C)C)C(=O)NCC(=O)NCC[C@H](N)C(=O)N[C@@H](CC(C)C)C(=O)N[C@@H](CCCCN)C(=O)N[C@@H](C)C(=O)N[C@@H](CC(C)C)C(=O)N[C@@H](C)C(=O)N[C@@H](C)C(=O)N[C@@H](CC(C)C)C(=O)N[C@@H](C)C(=O)N[C@@H](CCCCN)C(=O)N[C@@H](C)C(=O)N[C@H](C(=O)N[C@@H](CC(C)C)C(N)=O)[C@@H](C)CC` [NF425] (I: H-[Dab]LKALAALAKAIL-NH2 / II: Palmitoyl-AGYLLG; amide I:1-II:C), in test [1], the “Average RLU/mg” value was 106 000 000 RLU/mg. The “Efficacy” value in test [2] (in words) is recorded as “delivered mRNA into the spleen in vivo with high efficacy”. The “Reporter levels in the spleen (RLU)” value in test [2] is on record as 209 700 RLU.
Consider `CCCCCCCCCCCCCCCCCCCC(=O)N[C@@H](C)C(=O)NCC(=O)N[C@@H](Cc1ccc(O)cc1)C(=O)N[C@@H](CC(C)C)C(=O)N[C@@H](CC(C)C)C(=O)NCC(=O)NCC[C@H](N)C(=O)N[C@@H](CC(C)C)C(=O)N[C@@H](CCCCN)C(=O)N[C@@H](C)C(=O)N[C@@H](CC(C)C)C(=O)N[C@@H](C)C(=O)N[C@@H](C)C(=O)N[C@@H](CC(C)C)C(=O)N[C@@H](C)C(=O)N[C@@H](CCCCN)C(=O)N[C@@H](C)C(=O)N[C@H](C(=O)N[C@@H](CC(C)C)C(N)=O)[C@@H](C)CC` [NF426] (I: H-[Dab]LKALAALAKAIL-NH2 / II: Arachidoyl-AGYLLG; amide I:1-II:C), for which, in test [1], the “Average RLU/mg” value is reported as 1 960 000 000 RLU/mg, the “Efficiency of mRNA transfection/delivery” value is on record as “the most efficient”, the “Delivery of mRNA compared to NF54” value is on record as “equivalent delivery of cargo such as mRNA to NF54” and the “Delivery of mRNA compared to NF55” value is given as “good improvement in delivery of mRNA over NF55”. In addition, the “Efficacy” value in test [2] (in words) was “delivered mRNA into the spleen in vivo with high efficacy”. In addition, the “Delivery of mRNA in vivo compared to NF54 and/or NF55” value in test [2] (in words, comparator NF54 and/or NF55) is listed as “good improvement in mRNA delivery in vivo over NF55”. The “Reporter levels in the spleen (RLU)” value in test [2] is listed as 259 807 RLU.
